Data on one compound can be found in BindingDB's records for doi:10.1016/j.ejmech.2019.04.066 (Shanghai Ocean University, 2019).

This assay in a line: Inhibition of ICAM-1 in human A549 cells after 1 hr in presence of IL-1beta.

`C[C@@H]1C(=O)O[C@H]2[C@H]1CC[C@@]1(C)C[C@@H](Br)C(=O)[C@@H](C)[C@H]21`: the IC50 (usually the concentration needed to halve the response being measured) turned out to be 5.9 µM.
